Patent US7932270B2 (Cytokinetics, Inc., priority 2006, dated 2011)

Biological target: T1, chicken gizzard smooth muscle myosin subfragment-1 chemically crosslinked to cardiac or skeletal actin (Gallus gallus, UniProt P10587)
T1 construct: chicken gizzard smooth muscle myosin subfragment-1; from tissue; host or cells: chicken gizzard
Test: Smooth muscle myosin ATPase dose response assay (pyruvate kinase/horseradish peroxidase/pyruvate oxidase-coupled, amplex red fluorescence)
Type: biochemical
Details: read-out: IC50 Arithmetic Mean
Procedure, shortened: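 EDC/NHS-crosslinked S1–actin, amount set per prep by rate titration. Buffer: 12 mM K-PIPES pH 7.00 (22° C), 100 mM KCl, 2 mM MgCl2, 0.15 mM ATP, 0.1 mM PEP, 2 mM KPi, 0.1 mM amplex red. Read ex 480/em 615 nm; IC50 = midpoint, 4-param Hill fit.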

T1 sequence (P02607 2-151): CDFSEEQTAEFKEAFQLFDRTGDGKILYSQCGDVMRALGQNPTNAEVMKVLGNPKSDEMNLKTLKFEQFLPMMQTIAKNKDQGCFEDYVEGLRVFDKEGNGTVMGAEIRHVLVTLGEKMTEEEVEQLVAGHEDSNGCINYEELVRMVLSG
T1 sequence (P10587 84-789): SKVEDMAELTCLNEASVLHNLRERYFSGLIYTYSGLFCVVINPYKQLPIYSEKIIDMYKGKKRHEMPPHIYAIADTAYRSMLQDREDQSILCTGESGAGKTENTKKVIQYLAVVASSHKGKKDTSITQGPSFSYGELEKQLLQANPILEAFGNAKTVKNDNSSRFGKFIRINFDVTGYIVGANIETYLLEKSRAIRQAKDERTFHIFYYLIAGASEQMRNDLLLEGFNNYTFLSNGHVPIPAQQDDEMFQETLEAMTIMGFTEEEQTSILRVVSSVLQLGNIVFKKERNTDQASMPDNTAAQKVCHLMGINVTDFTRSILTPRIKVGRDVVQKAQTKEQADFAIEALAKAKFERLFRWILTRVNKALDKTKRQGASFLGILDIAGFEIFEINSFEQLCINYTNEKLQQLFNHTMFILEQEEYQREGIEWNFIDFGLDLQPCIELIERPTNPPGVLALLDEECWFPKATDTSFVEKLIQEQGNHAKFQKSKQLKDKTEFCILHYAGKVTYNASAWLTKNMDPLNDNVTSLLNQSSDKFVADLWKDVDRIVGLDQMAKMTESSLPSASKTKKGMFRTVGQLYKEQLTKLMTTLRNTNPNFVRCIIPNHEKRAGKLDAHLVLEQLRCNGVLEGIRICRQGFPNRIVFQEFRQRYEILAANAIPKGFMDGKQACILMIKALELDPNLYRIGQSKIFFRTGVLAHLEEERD

Compound	IC50
CNC(=O)CNC(=O)c1ccc(-c2cnn(C)c2)nc1NCCc1cccc(F)c1 [2-[(2-{[2-(3-fluorophenyl)ethyl]amino}6-(1-methylpyrazol-4-yl)(3-pyridyl))carbonylamino]-N-methylacetamide]	350 nM
C[C@@H](CN)CNC(=O)c1cc(F)c(-c2cnn(C)c2)nc1NCCc1cccc(F)c1 [N-((2S)-3-amino-2-methylpropyl)(5-fluoro-2-{[2-(3-fluorophenyl)ethyl]amino}-6-(1-methylpyrazol-4-yl)(3-pyridyl))carboxamide]	1050 nM
N#Cc1ccccc1-c1ccc(C(=O)NC[C@H](N)CO)c(NCCc2cccc(F)c2)n1 [N-((2S)-2-amino-3-hydroxypropyl)(6-(2-cyanophenyl)-2-{[2-(3-fluorophenyl)ethyl]amino}(3-pyridyl))carboxamide]	1590 nM
N#Cc1ccccc1-c1ccc(C(=O)NCc2ncco2)c(NCCc2cccc(F)c2)n1 [(6-(2-cyanophenyl)-2-{[2-(3-fluorophenyl)ethyl]amino}(3-pyridyl))-N-(1,3-oxazol-2-ylmethyl)carboxamide]	40 nM
O=C(NCc1cccnc1)c1ccc(-c2csc(CO)c2)nc1NCCc1cccc(F)c1 [(2-{[2-(3-fluorophenyl)ethyl]amino}-6-[5-(hydroxymethyl)(3-thienyl)](3-pyridyl))-N-(3-pyridylmethyl)carboxamide]	73 nM
CC(C)(C)OC(=O)NCCCNC(=O)CNC(=O)c1ccc(-c2ccccc2C#N)nc1NCCc1cccc(F)c1 [N-{3-[(tert-butoxy)carbonylamino]propyl}-2-[(6-(2-cyanophenyl)-2-{[2-(3-fluorophenyl)ethyl]amino}(3-pyridyl))carbonylamino]acetamide]	9880 nM
CC(C)C[C@H](CNC(=O)c1ccc(-c2ccccc2C#N)nc1NCCc1cccc(F)c1)NC(=O)CN [N-((1R)-1-{[(6-(2-cyanophenyl)-2-{[2-(3-fluorophenyl)ethyl]amino}(3-pyridyl))carbonylamino]methyl}-3-methylbutyl)-2-aminoacetamide]	913 nM
Cc1n[nH]c(C)c1CCNc1nc(-c2ccccc2)ccc1C(=O)NCc1cccnc1 [(2-{[2-(3,5-dimethylpyrazol-4-yl)ethyl]amino}-6-phenyl(3-pyridyl))-N-(3-pyridylmethyl)carboxamide]	5940 nM
Cn1ccc(CNC(=O)c2ccc(-c3ccccc3C#N)nc2NCCc2cccc(F)c2)n1 [(6-(2-cyanophenyl)-2-{[2-(3-fluorophenyl)ethyl]amino}(3-pyridyl))-N-[(1-methylpyrazol-3-yl)methyl]carboxamide]	32 nM
CC(C)(C)OC(=O)NCCc1ncccc1CNC(=O)c1ccc(-c2ccccc2C#N)nc1NCCc1cccc(F)c1 [N-[(2-{2-[(tert-butoxy)carbonylamino]ethyl}(3-pyridyl))methyl](6-(2-cyanophenyl)-2-{[2-(3-fluorophenyl)ethyl]amino}(3-pyridyl))carboxamide]	470 nM
O=C(NCc1cccnc1)c1ccc(-c2ccccc2)nc1NCCc1cccc(Cl)c1 [(2-{[2-(3-chlorophenyl)ethyl]amino}-6-phenyl(3-pyridyl))-N-(3-pyridylmethyl)carboxamide]	349 nM
COc1cccc(CCNc2nc(-c3ccccc3)ccc2C(=O)NCc2cccnc2)c1 [(2-{[2-(3-methoxyphenyl)ethyl]amino}-6-phenyl(3-pyridyl))-N-(3-pyridylmethyl)carboxamide]	269 nM
CC(C)(C)OC(=O)NCc1ncccc1CNC(=O)c1cc(F)c(-c2ccccn2)nc1NCCc1cccc(F)c1 [N-[(2-{[(tert-butoxy)carbonylamino]methyl}(3-pyridyl))methyl](5-fluoro-2-{[2-(3-fluorophenyl)ethyl]amino}-6-(2-pyridyl)(3-pyridyl))carboxamide]	3660 nM
Cn1nccc1CNC(=O)c1ccc(-c2ccccc2C#N)nc1NCCc1cccc(F)c1 [(6-(2-cyanophenyl)-2-{[2-(3-fluorophenyl)ethyl]amino}(3-pyridyl))-N-[(1-methylpyrazol-5-yl)methyl]carboxamide]	31 nM
C[C@H](CNC(=O)c1cc(F)c(-c2cnn(C)c2)nc1NCCc1cccc(F)c1)NC(=O)CN(C)C	121 nM
CC(C)(CNC(=O)c1ccc(-c2ccccc2C#N)nc1NCCc1cccc(F)c1)NC(=O)CCCNC(=O)OC(C)(C)C	194 nM

Now from value to compound:

IC50	Compound
559 nM	O=C(NC[C@H]1CCN1C(=O)CO)c1ccc(-c2cn[nH]c2)nc1NCCc1cccc(F)c1 [N-{[(2R)-1-(2-hydroxyacetyl)azetidin-2-yl]methyl}(2-{[2-(3-fluorophenyl)ethyl]amino}-6-pyrazol-4-yl(3-pyridyl))carboxamide]
2290 nM	O=C(NCc1cccnc1)c1ccc(-c2ccc(C(F)(F)F)cc2)nc1NCCc1ccccn1 [{2-[(2-(2-pyridyl)ethyl)amino]-6-[4-(trifluoromethyl)phenyl](3-pyridyl)}-N-(3-pyridylmethyl)carboxamide]
30600 nM	O=C(NCc1cccnc1)c1ccc(-c2ccc(C(=O)NCc3cccnc3)c(NCCc3cccc(F)c3)n2)nc1NCCc1cccc(F)c1 [[2-{[2-(3-fluorophenyl)ethyl]amino}-6-(6-{[2-(3-fluorophenyl)ethyl]amino}-5-[N-(3-pyridylmethyl)carbamoyl](2-pyridyl))(3-pyridyl)]-N-(3-pyridylmethyl)carboxamide]
42 nM	N#Cc1ccccc1-c1ccc(C(=O)NC[C@H]2CCC(=O)N2CCCN)c(NCCc2cccc(F)c2)n1 [N-{[(2R)-1-(3-aminopropyl)-5-oxopyrrolidin-2-yl]methyl}(6-(2-cyanophenyl)-2-{[2-(3-fluorophenyl)ethyl]amino}(3-pyridyl))carboxamide]
604 nM	NCc1cccc(CNC(=O)c2cc(Br)c(-c3ccccc3)nc2NCCc2cccc(F)c2)n1 [N-{[6-(aminomethyl)(2-pyridyl)]methyl}(5-bromo-2-{[2-(3-fluorophenyl)ethyl]amino}-6-phenyl(3-pyridyl))carboxamide]
8880 nM	N#Cc1ccccc1-c1ccc(C(=O)NC[C@H]2CN(C(=O)CN)CCN2)c(NCCc2cccc(F)c2)n1 [N-{[(2S)-4-(2-aminoacetyl)piperazin-2-yl]methyl}(6-(2-cyanophenyl)-2-{[2-(3-fluorophenyl)ethyl]amino}(3-pyridyl))carboxamide]
10700 nM	CC(=O)N1CCC[C@@H](CNC(=O)c2ccc(-c3ccccc3C#N)nc2NCCc2cccc(F)c2)C1 [N-[((3S)-1-acetyl(3-piperidyl))methyl](6-(2-cyanophenyl)-2-{[2-(3-fluorophenyl)ethyl]amino}(3-pyridyl))carboxamide]
634 nM	NCCn1nccc1CNC(=O)c1ccc(-c2cc[nH]n2)nc1NCCc1cccc(F)c1 [N-{[1-(2-aminoethyl)pyrazol-5-yl]methyl}(2-{[2-(3-fluorophenyl)ethyl]amino}-6-pyrazol-3-yl(3-pyridyl))carboxamide]
83 nM	N#Cc1ccccc1-c1ccc(C(=O)NC[C@H]2CCCCN2C(=O)CCCN)c(NCCc2cccc(F)c2)n1 [N-{[(2R)-1-(4-aminobutanoyl)(2-piperidyl)]methyl}(6-(2-cyanophenyl)-2-{[2-(3-fluorophenyl)ethyl]amino}(3-pyridyl))carboxamide]
19 nM	N#Cc1ccccc1-c1ccc(C(=O)NCc2cccc(CNCCN)n2)c(NCCc2cccc(F)c2)n1 [N-[(6-{[(2-aminoethyl)amino]methyl}(2-pyridyl))methyl](6-(2-cyanophenyl)-2-{[2-(3-fluorophenyl)ethyl]amino}(3-pyridyl))carboxamide]
810 nM	NC(=O)CNC(=O)c1ccc(-c2ccccc2)nc1NCCc1ccccc1 [N-(carbamoylmethyl){6-phenyl-2-[(2-phenylethyl)amino](3-pyridyl)}carboxamide]
586 nM	O=C(NCc1cccnc1)c1ccc(-c2ccc(O)cc2)nc1NCCc1ccccn1 [{6-(4-hydroxyphenyl)-2-[(2-(2-pyridyl)ethyl)amino](3-pyridyl)}-N-(3-pyridylmethyl)carboxamide]
27 nM	Cn1cc(-c2nc(NCCc3cccc(F)c3)c(C(=O)NC[C@H]3CCC(=O)N3)cc2F)cn1 [N-[((2R)-5-oxopyrrolidin-2-yl)methyl](5-fluoro-2-{[2-(3-fluorophenyl)ethyl]amino}-6-(1-methylpyrazol-4-yl)(3-pyridyl))carboxamide]
1060 nM	NCc1ccc(CNC(=O)c2ccc(-c3ccccc3)nc2NCCc2cccc(F)c2)nc1 [N-{[5-(aminomethyl)(2-pyridyl)]methyl}(2-{[2-(3-fluorophenyl)ethyl]amino}-6-phenyl(3-pyridyl))carboxamide]
95 nM	NCCCn1nccc1CNC(=O)c1ccc(-c2cn[nH]c2)nc1NCCc1cccc(F)c1 [N-{[1-(3-aminopropyl)pyrazol-5-yl]methyl}(2-{[2-(3-fluorophenyl)ethyl]amino}-6-pyrazol-4-yl(3-pyridyl))carboxamide]
66 nM	NCc1ncccc1CNC(=O)c1cc(F)c(-c2ccccn2)nc1NCCc1cccc(F)c1 [N-{[2-(aminomethyl)(3-pyridyl)]methyl}(5-fluoro-2-{[2-(3-fluorophenyl)ethyl]amino}-6-(2-pyridyl)(3-pyridyl))carboxamide]
1260 nM	N#Cc1ccccc1-c1ccc(C(=O)NC[C@@H]2CCCN(C(=O)CCN)C2)c(NCCc2cccc(F)c2)n1 [N-{[(3S)-1-(3-aminopropanoyl)(3-piperidyl)]methyl}(6-(2-cyanophenyl)-2-{[2-(3-fluorophenyl)ethyl]amino}(3-pyridyl))carboxamide]
8 nM	NCc1ncccc1CNC(=O)c1ccc(-c2ccccc2)nc1NCCc1cccc(F)c1 [N-{[2-(aminomethyl)(3-pyridyl)]methyl}(2-{[2-(3-fluorophenyl)ethyl]amino}-6-phenyl(3-pyridyl))carboxamide]
74 nM	N#Cc1ccccc1-c1ccc(C(=O)NC[C@@H]2CCCCN2C(=O)CN)c(NCCc2cccc(F)c2)n1 [N-{[(2S)-1-(2-aminoacetyl)(2-piperidyl)]methyl}(6-(2-cyanophenyl)-2-{[2-(3-fluorophenyl)ethyl]amino}(3-pyridyl))carboxamide]
